Source: patent US9512075B2 (OKAYAMA UNIVERSITY, priority 2012, dated 2016)
Converted amounts (≈) assume the structure as drawn. Read-outs that look alike come from different tables or passages of the source.

What was measured:
Assay type in all cases: cell-based
[1] = tested on: Enterococcus faecalis NCTC12201 strain (vancomycin-resistant Enterococcus: VRE); assay: MIC for Enterococcus faecalis NCTC12201 strain (VRE); details: read-out: MIC Enterococcus faecalis NCTC 12201 (VRE)
[2] = tested on: Staphylococcus aureus 209P strain; assay: MIC for Staphylococcus aureus 209P strain; details: Staphylococcus aureus, read-out: MIC Straphyrococcus aureus 209P
[3] = tested on: Escherichia coli BE1121 strain; assay: MIC for Escherichia coli BE1121 strain; details: Escherichia coli, BE1121STRAIN, read-out: MIC Escherichia coli BE1121
[4] = tested on: Escherichia coli K-12 strain; assay: MIC for Escherichia coli K-12 strain; details: Escherichia coli, K12STRAIN, read-out: MIC Escherichia coli K12
[5] = tested on: Staphylococcus aureus Smith strain; assay: MIC for Staphylococcus aureus Smith strain; details: read-out: MIC Straphyrococcus aureus Smith
[6] = tested on: Staphylococcus aureus MRSA No. 17 (methicillin-resistant Staphylococcus aureus: MRSA); assay: MIC for Staphylococcus aureus MRSA No. 17; details: read-out: MIC Straphyrococcus aureus MRSA No. 17 (MRSA)
[7] = tested on: Clostridium perfringens PB6K strain; assay: microbe, parasite or virus in culture; details: Clostridium perfringens, PB6KSTRAIN, read-out: MIC Clostridium perfringens PB6K, PB6K strain; CD medium, 37° C. overnight, 10% CO2-containing anaerobic conditions
[8] = tested on: Enterococcus faecalis 5038 strain; assay: MIC for Enterococcus faecalis 5038 strain; details: read-out: MIC Enterococcus faecalis 5038
[9] = tested on: Clostridium difficile JCM1296 strain; assay: microbe, parasite or virus in culture; details: Clostridioides difficile, JCM1296, read-out: MIC Clostridium difficile JCM1296
[10] = NCTC12201 strain (VRE), Heart Infusion Broth medium, 37° C. overnight, turbidity
[11] = Smith strain, regular bouillon medium, 37° C. overnight, turbidity
[12] = MRSA No. 17, regular bouillon medium, 37° C. overnight, turbidity
[13] = 5038 strain, Heart Infusion Broth medium, 37° C. overnight, turbidity
[14] = 209P strain, regular bouillon medium, 37° C. overnight, turbidity
[15] = BE1121 strain, regular bouillon medium, 37° C. overnight, turbidity
[16] = K-12 strain, regular bouillon medium, 37° C. overnight, turbidity

SMILES	MIC [1, 10] [µg/mL]	MIC ([2]; 209P) [µg/mL]	MIC [3] [µg/mL]	MIC [4] [µg/mL]	MIC [5, 11] [µg/mL]	MIC [6, 12] [µg/mL]	MIC [7] [µg/mL]	MIC [8, 13] [µg/mL]	MIC [9] [µg/mL]	MIC [1] [µg/mL]	MIC [2, 14] [µg/mL]	MIC [3, 15] [µg/mL]	MIC [4, 16] [µg/mL]	MIC ([8]; 5038STRAIN) [µg/mL]	MIC ([1]; NCTC12201|VRE) [µg/mL]	MIC [5] [µg/mL]	MIC ([6]; MRSA) [µg/mL]
CCCCCCCCCC(=O)N1C(=O)/C(=C(/C)O)c2cc(F)ccc21 [A051, N-decanoyl-3-acetyl-5-fluoro-2-oxyindole]	0.25 (≈ 0.72 µM)	4 (≈ 11.5 µM)	2 (≈ 5.76 µM)	56 (≈ 161 µM)	0.5 (≈ 1.44 µM)	4 (≈ 11.5 µM)	8 (≈ 23 µM)	0.5 (≈ 1.44 µM)	1 (≈ 2.88 µM)	–	–	–	–	–	–	–	–
CCCCCCCCCC(O)=C1C(=O)N(C(C)=O)c2ccc(Br)cc21 [A026, N-acetyl-5-bromo-3-decanoyl-2-oxyindole]	–	–	–	–	0.25 (≈ 0.612 µM)	4 (≈ 9.8 µM)	0.25 (≈ 0.612 µM)	–	< 0.125	< 0.125	4 (≈ 9.8 µM)	8 (≈ 19.6 µM)	128 (≈ 313 µM)	< 0.125	–	–	–
CCCCCCCCCCSCC(=O)c1c(O)c2cc(F)ccc2oc1=O [B027]	–	–	–	–	–	–	0.25 (≈ 0.634 µM)	–	< 0.125	–	2 (≈ 5.07 µM)	4 (≈ 10.1 µM)	256 (≈ 649 µM)	0.25 (≈ 0.634 µM)	< 0.125	0.25 (≈ 0.634 µM)	1 (≈ 2.53 µM)
CCCCCCCCCCOCC(O)=C1C(=O)N(C(=O)Nc2ccc(OC)cc2)c2ccccc21 [A045, N-(4-methoxyphenylaminocarbonyl)-3-decyloxyacetyl-2-oxyindole]	64 (≈ 133 µM)	–	–	–	128 (≈ 266 µM)	256 (≈ 533 µM)	8 (≈ 16.6 µM)	4 (≈ 8.32 µM)	0.5 (≈ 1.04 µM)	–	256 (≈ 533 µM)	128 (≈ 266 µM)	128 (≈ 266 µM)	–	–	–	–
CCCCCCCCCC(O)=C1C(=O)N(C(=O)Nc2ccccc2C(F)(F)F)c2ccccc21 [A054, N-(2-(trifluoromethyl)phenylaminocarbonyl)-3-decanoyl-2-oxyindole]	1 (≈ 2.11 µM)	–	–	–	0.5 (≈ 1.05 µM)	2 (≈ 4.21 µM)	< 0.125	1 (≈ 2.11 µM)	< 0.125	–	2 (≈ 4.21 µM)	256 (≈ 539 µM)	256 (≈ 539 µM)	–	–	–	–
O=C(Nc1ccccc1)N1C(=O)C(=C(O)CCCCCCCCCBr)c2ccccc21 [A025, N-(phenylaminocarbonyl)-3-(10-bromodecanoyl)-2-oxyindole]	0.5 (≈ 1.03 µM)	–	–	–	2 (≈ 4.12 µM)	256 (≈ 527 µM)	1 (≈ 2.06 µM)	0.5 (≈ 1.03 µM)	0.5 (≈ 1.03 µM)	–	256 (≈ 527 µM)	256 (≈ 527 µM)	256 (≈ 527 µM)	–	–	–	–
CCCCCCCCOCC(O)=C1C(=O)N(C(=O)Nc2ccccc2)c2ccccc21 [A058, N-(phenylaminocarbonyl)-3-octyloxyacetyl-2-oxyindole]	0.25 (≈ 0.592 µM)	–	–	–	0.5 (≈ 1.18 µM)	128 (≈ 303 µM)	< 0.125	0.25 (≈ 0.592 µM)	< 0.125	–	64 (≈ 151 µM)	128 (≈ 303 µM)	128 (≈ 303 µM)	–	–	–	–
CCCCCCCCCC(=O)N1C(=O)/C(=C(\O)COC)c2ccccc21 [A049, N-decanoyl-3-methoxyacetyl-2-oxyindole]	0.5 (≈ 1.39 µM)	–	–	–	1 (≈ 2.78 µM)	256 (≈ 712 µM)	0.5 (≈ 1.39 µM)	0.5 (≈ 1.39 µM)	0.5 (≈ 1.39 µM)	–	256 (≈ 712 µM)	128 (≈ 356 µM)	256 (≈ 712 µM)	–	–	–	–
CCCCCCCCNC(=O)c1c(O)c2cc(F)ccc2oc1=O [B022, 6-fluoro-3-(octylaminocarbonyl)-4-hydroxycoumarin]	256 (≈ 763 µM)	–	–	–	128 (≈ 382 µM)	256 (≈ 763 µM)	64 (≈ 191 µM)	256 (≈ 763 µM)	16 (≈ 47.7 µM)	–	128 (≈ 382 µM)	128 (≈ 382 µM)	256 (≈ 763 µM)	–	–	–	–
CCCCC1CCC(C(O)=C2C(=O)N(C(=O)OC(C)(C)C)c3ccccc32)CC1 (stereo not drawn) [A008, N-Boc-3-(4-butylcyclohexylcarbonyl)-2-oxyindole]	128 (≈ 320 µM)	–	–	–	128 (≈ 320 µM)	256 (≈ 641 µM)	2 (≈ 5.01 µM)	128 (≈ 320 µM)	1 (≈ 2.5 µM)	–	64 (≈ 160 µM)	128 (≈ 320 µM)	128 (≈ 320 µM)	–	–	–	–
CCCCCCCCCC(O)=C1C(=O)Nc2ccc(F)cc21 [A004, 3-decanoyl-5-fluoro-2-oxyindole]	15 (≈ 49.1 µM)	16 (≈ 52.4 µM)	128 (≈ 419 µM)	128 (≈ 419 µM)	16 (≈ 52.4 µM)	32 (≈ 105 µM)	8 (≈ 26.2 µM)	16 (≈ 52.4 µM)	2 (≈ 6.55 µM)	–	–	–	–	–	–	–	–
CCCCCCCCNC(=O)N1C(=O)C(=C(O)c2ccccc2)c2ccccc21 [A031, N-(octylaminocarbonyl)-3-benzoyl-2-oxyindole]	–	0.25 (≈ 0.637 µM)	256 (≈ 652 µM)	256 (≈ 652 µM)	–	–	0.25 (≈ 0.637 µM)	–	0.25 (≈ 0.637 µM)	0.25 (≈ 0.637 µM)	–	–	–	25 (≈ 63.7 µM)	–	0.5 (≈ 1.27 µM)	256 (≈ 652 µM)
CCCCCCCCCCOC(C)C(O)=C1C(=O)N(C(=O)Nc2ccccc2)c2ccccc21 (stereo not drawn) [A021, N-(phenylaminocarbonyl)-3-(2-decyloxypropionyl)-2-oxyindole]	0.5 (≈ 1.08 µM)	–	–	–	0.5 (≈ 1.08 µM)	256 (≈ 551 µM)	2 (≈ 4.3 µM)	0.5 (≈ 1.08 µM)	1 (≈ 2.15 µM)	–	128 (≈ 276 µM)	256 (≈ 551 µM)	256 (≈ 551 µM)	–	–	–	–
CCCCCCCCCC(O)=C1C(=O)N(C(=O)Nc2ccc(OC)cc2)c2ccccc21 [A046, N-(4-methoxyphenylaminocarbonyl)-3-decanoyl-2-oxyindole]	256 (≈ 586 µM)	–	–	–	256 (≈ 586 µM)	256 (≈ 586 µM)	8 (≈ 18.3 µM)	256 (≈ 586 µM)	1 (≈ 2.29 µM)	–	256 (≈ 586 µM)	256 (≈ 586 µM)	256 (≈ 586 µM)	–	–	–	–
CCCCNC(=O)N1C(=O)C(=C(O)C2CCC(CCCC)CC2)c2ccccc21 (stereo not drawn) [A015, N-(butylaminocarbonyl)-3-(4-butylcyclohexylcarbonyl)-2-oxyindole]	8 (≈ 20.1 µM)	–	–	–	256 (≈ 642 µM)	256 (≈ 642 µM)	8 (≈ 20.1 µM)	8 (≈ 20.1 µM)	4 (≈ 10 µM)	–	256 (≈ 642 µM)	256 (≈ 642 µM)	256 (≈ 642 µM)	–	–	–	–
CCCCCCCCCC(O)=C1C(=O)N(C(=O)Nc2ccc(F)cc2)c2ccccc21 [A042, N-(4-fluorophenylaminocarbonyl)-3-decanoyl-2-oxyindole]	4 (≈ 9.42 µM)	–	–	–	0.5 (≈ 1.18 µM)	256 (≈ 603 µM)	1 (≈ 2.36 µM)	2 (≈ 4.71 µM)	< 0.125	–	256 (≈ 603 µM)	256 (≈ 603 µM)	256 (≈ 603 µM)	–	–	–	–
CCCCCCCCCCOCC(=O)c1c(O)c2ccccc2oc1=O [B015, 3-decyloxyacetyl-4-hydroxycoumarin]	–	8 (≈ 22.2 µM)	128 (≈ 355 µM)	256 (≈ 710 µM)	–	–	25 (≈ 69.4 µM)	–	0.25 (≈ 0.694 µM)	2 (≈ 5.55 µM)	–	–	–	4 (≈ 11.1 µM)	–	2 (≈ 5.55 µM)	8 (≈ 22.2 µM)
CCCCCCCCCCCCNC(=O)c1c(O)c2ccccc2oc1=O [B025, 3-(dodecylaminocarbonyl)-4-hydroxycoumarin]	1 (≈ 2.68 µM)	–	–	–	2 (≈ 5.35 µM)	8 (≈ 21.4 µM)	4 (≈ 10.7 µM)	2 (≈ 5.35 µM)	4 (≈ 10.7 µM)	–	8 (≈ 21.4 µM)	256 (≈ 685 µM)	256 (≈ 685 µM)	–	–	–	–
CCCCCCCCCCOCC(O)=C1C(=O)N(C(=O)OC(C)(C)C)c2ccc(F)cc21 [A055, N-Boc-3-decyloxyacetyl-5-fluoro-2-oxyindole]	128 (≈ 285 µM)	–	–	–	128 (≈ 285 µM)	128 (≈ 285 µM)	2 (≈ 4.45 µM)	128 (≈ 285 µM)	0.25 (≈ 0.556 µM)	–	128 (≈ 285 µM)	256 (≈ 569 µM)	256 (≈ 569 µM)	–	–	–	–
CCCCCCCCCCSCC(O)=C1C(=O)N(C(C)=O)c2ccc(Br)cc21 [A030, N-acetyl-5-bromo-3-decylthioacetyl-2-oxyindole]	0.25 (≈ 0.534 µM)	–	–	–	0.25 (≈ 0.534 µM)	2 (≈ 4.27 µM)	< 0.125	0.25 (≈ 0.534 µM)	< 0.125	–	2 (≈ 4.27 µM)	8 (≈ 17.1 µM)	256 (≈ 546 µM)	–	–	–	–
